In this experiment the target is Human 11β-HSD type 1 (Homo sapiens, UniProt P28845). Kind of experiment: 11β-HSD type 1 enzyme assay (NADPH production by fluorescence). The experiment is classed as biochemical. To be noted: recombinant human 11β-HSD type 1 enzyme, cortisol/NADP substrate, three hour incubation at room temperature. The protocol:
Human 11β-HSD type 1 activity is measured by assaying NADPH production by fluorescence assay. Solid compounds are dissolved in DMSO to a concentration of 10 mM. Twenty microliters of each are then transferred to a column of a 96-well polypropylene Nunc plate where they are further diluted 50-fold followed by subsequent two-fold titration, ten times across the plate with additional DMSO using a Tecan Genesis 200 automated system. Plates are then transferred to a Tecan Freedom 200 system with an attached Tecan Temo 96-well head and an Ultra 384 plate reader. Reagents are supplied in 96-well polypropylene Nunc plates and are dispensed individually into black 96-well Molecular Devices High Efficiency assay plates (40 μL/well capacity) in the following fashion: 9 μL/well of substrate (2.22 mM NADP, 55.5 μM Cortisol, 10 mM Tris, 0.25% Prionex, 0.1% Triton X100), 3 μL/well of water to compound wells or 3 μL to control and standard wells, 6 μL/well recombinant human 11β-HSD type 1 enzyme, 2 μL/well of compound dilutions. […] Final DMSO concentration is 0.5% for all compounds, controls and standards. Plates are then placed on a shaker by the robotic arm of the Tecan for 15 seconds before being covered and stacked for a three hour incubation period at room temperature. Upon completion of this incubation, the Tecan robotic arm removes each plate individually from the stacker and places them in position for addition of 5 μL/well of a 250 μM carbenoxolone solution to stop the enzymatic reaction. Plates are then shaken once more for 15 seconds then placed into an Ultra 384 microplate reader (355EX/460EM) for detection of NADPH fluorescence.
Human 11β-HSD type 1, sequence (P28845 whole entry): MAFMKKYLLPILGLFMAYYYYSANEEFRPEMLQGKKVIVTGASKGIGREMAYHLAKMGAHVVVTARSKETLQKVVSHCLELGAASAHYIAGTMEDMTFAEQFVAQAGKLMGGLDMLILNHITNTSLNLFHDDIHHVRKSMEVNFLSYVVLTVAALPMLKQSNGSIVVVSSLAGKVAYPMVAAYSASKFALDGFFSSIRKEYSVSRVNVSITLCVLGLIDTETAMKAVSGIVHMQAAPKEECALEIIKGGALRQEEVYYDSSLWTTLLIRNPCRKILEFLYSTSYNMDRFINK
As a reminder, the IC50 is the midpoint of a concentration-inhibition curve. In the case of `COc1ccc2c(Cl)c(CC3CCN(C4CCCCC4)C3=O)ccc2c1` (stereo not shown) [Example 24, 3-((1-chloro-6-methoxynaphthalen-2-yl)methyl)-1-cyclohexylpyrrolidin-2-one], the half-maximal inhibitory concentration (IC50) is 213 nM.

Turning to `COc1ccc2cc(CC3CCN([C@H]4CC[C@@H](O)CC4)C3=O)ccc2c1` (relative stereo) [Example 8, 1-(cis-4-Hydroxy-cyclohexyl)-3-(6-methoxy-naphthalen-2-ylmethyl)-pyrrolidin-2-one], the IC50 is 247 nM.

On to `O=C1C(Cc2ccc3ccccc3c2Br)CCN1C1CCCCC1` (stereo not shown) [Example 2, 3-(1-Bromo-naphthalen-2-ylmethyl)-1-cyclohexyl-pyrrolidin-2-one], for which the IC50 was 354 nM.

For the compound `COc1ccc2ccccc2c1CC1CCCN(C2CCCCC2)C1=O` (stereo not shown) [Example 40, 1-Cyclohexyl-3-(2-methoxy-naphthalene-1-ylmethyl)-piperidin-2-one], the IC50 is 423 nM.

As for `COc1ccc2cc(CC3CCN(C4CCCCC4)C3=O)ccc2c1` (stereo not shown) [Example 4, 1-Cyclohexyl-3-(6-methoxy-naphthalen-2-ylmethyl)-pyrrolidin-2-one], the IC50 is 134 nM.

For the compound `O=C1C(Cc2ccc3cc(-c4c(Cl)cccc4Cl)ccc3c2)CCN1C1CCCCC1` (stereo not shown) [Example 44], the half-maximal inhibitory concentration (IC50) came out at 344 nM.

For `COc1ccc2cc(CC3CCCN([C@H]4CC[C@H](O)CC4)C3=O)ccc2c1` (stereo partly shown) [Example 34], the IC50 was 353 nM.
